Columns and labels:
[1] = tested on: powdery mildew; assay: Fungicidal activity against powdery mildew on inoculated cucumber plants (disease index); format: in vivo, Sphaerotheca fuliginia; settings: cucumbers, letters in the cell = significance groups (P = 0.05)
Description: Cucumbers sensitive to powdery mildew were sprouted in trays and then transferred to pots of 16 cm diameter, two plants per pot. They were kept in a hot-house at 18° C.-25° C. at a relative humidity of 60%-70%. The cucumber plants were contaminated with powdery mildew collected from pumpkin leaves by passing the contaminated leaf over the leaves of the plants to be tested and the plants then sprayed with water. First treatment was with the first appearance of the disease, by spraying until dripping. All treatments were at a concentration of 0.03%, except for the commercial Myclobutanal (a systemic fungicide of Rohm and Haas Co.), where a concentration of 0.006% was used. The status of the disease was determined by three different people. The experiment was conducted in blocks, at random, with repetitions. Four blocks of four repetitions of ten treatments (total 160 pots) at three evaluation periods.

[2] = tested on: coffee berry disease; assay: Activity against coffee berry disease (inhibition of sporulation on colonized branch sections); format: in vivo, Colletotrichum coffeanum; settings: for Per Cent Active Ingredient for 80% Inhibition: 80% inhibition of sporulation, by linear regression of dose response curves, three days incubation
Description: The zinc complex of prochloraz was tested for its activity against coffee berry disease as follows:
Approximately 3.5 mm sections of colonized branches are washed in a solution of Teepol or similar wetting agent to remove any initial spore load. Sections are laid on moistened cellosine wadding in plastic boxes, 12 sections per box. Three boxes are sprayed with each concentration of the candidate material, closed and incubated for three days. After incubation the spores are removed by vigorous shaking of each of the 12 twigs in 10 ml water and are counted, using a haemocytometer slide. The sections of the branch are measured and their volume taken by displacement. The parameters measured were concentration of the formulation and expressed as percent active ingredient (A.I.) and percent inhibition of sporulation. The inhibition of sporulation was expressed in relation to the sporulation of unsprayed control and folpet as the standard fungicide. Each determination was done in triplicate and repeated at least three times. The dose response curves were analyzed by linear regression and the different formulations were compared at the 80% inhibition point.

[3] = tested on: crops; settings: free, non-complexed prochloraz vs metal complexes; susceptible crops; cited from earlier work
[4] = 0.006% spray (commercial standard), key 0 = clean to 5 = over 50% sick
[5] = 0.03% spray, key 0 = clean, 1 = 10%-20% sick, 2 = 20%-30%, 3 = 30%-40%, 4 = 40%-50%, 5 = over 50% sick

| Compound | Per Cent Active Ingredient for 80% Inhibition [2] | Disease Index 14 Days After Treatment [1, 5] | Disease Index 7 Days After Treatment [1, 5] | also measured |
| --- | --- | --- | --- | --- |
| CCCCC(C#N)(Cn1cncn1)c1ccc(Cl)cc1 (racemic) [Myclobutanol, reference compound] |  |  |  | Disease Index 7 Days After Treatment [1, 4]: 1.34; Disease Index 14 Days After Treatment [1, 4]: 0.81 |
| O=C1c2ccccc2C(=O)N1SC(Cl)(Cl)Cl [Folpet, reference compound] | 0.62 Per Cent Active Ingredient |  |  |  |
| CCCN(CCOc1c(Cl)cc(Cl)cc1Cl)C(=O)n1ccnc1.CCCN(CCOc1c(Cl)cc(Cl)cc1Cl)C(=O)n1ccnc1.[Cl][Sn][Cl] [SnCl2 complex of Prochloraz, Bis-[1-{N-propyl-N-2-(2,4,6-trichlorophenoxy)-ethyl-carbamoyl}-imidazole]-tin(II) chloride complex] |  | 0.78 |  |  |
| CCCN(CCOc1c(Cl)cc(Cl)cc1Cl)C(=O)n1ccnc1.CCCN(CCOc1c(Cl)cc(Cl)cc1Cl)C(=O)n1ccnc1.[Cl][Zn][Cl] [ZnCl2 complex of Prochloraz, Bis-[1-{N-propyl-N-2-(2,4,6-trichlorophenoxy)-ethyl-carbamoyl}-imidazole]-zinc chloride complex] | 0.09 Per Cent Active Ingredient | 0.94 | 1.63 | activity against coffee berry disease (in words) ([2]; especially as compared to known commercial metal complexes): very good activity; activity against coffee berry disease compared to commercial "Octave" ([2]; relative to Octave, at 80% inhibition point): more than two times greater |
| CCCN(CCOc1c(Cl)cc(Cl)cc1Cl)C(=O)n1ccnc1 [prochloraz, 1-[N-propyl-N-2-(2,4,6-trichlorophenoxy)-ethyl-carbamoyl]-imidazole] |  |  |  | phytotoxicity [3]: phytotoxic to some crops |
| Bis-[1-{N-propyl-N-2-(2,4,6-trichlorophenoxy)-ethyl-carbamoyl}-imidazole]-cobalt (II) chloride complex [CoCl2 complex of Prochloraz] |  | 1.38 | 2.06 |  |

Source: patent US5206232A, “Fungicidal imidazole complexes” (priority 1990, dated 1993)
